Laboratory results reported in US5260257A, “Thermal transfer sheet” (Dai Nippon Printing Co., Ltd., priority 1991, dated 1993).
Values belong to the molecule of their own block, whether it stands above or below them.

Assay: light fastness test (xenon fadeometer, percentage fading)
Format: physicochemical
Settings: 70 kJ/m^2
Procedure: The light fastness test was conducted as follows.
Irradiation was conducted by means of a xenon fadeometer Ci35A (manufactured by Atlas) under conditions of a black panel temperature of 50° C. and an integrating irradiation energy of 70 kJ/m^2.
The percentage fading was determined from a density change around an initial density of 1.0 according to the following equation.
Percentage fading=(1-I/I0)×100 (%)
I=optical density after irradiation; and
I0 =optical density before irradiation.
.largecircle.: less than 20% in the percentage fading
X : 20% or more in the percentage fading

[1] = Table C2, dyes of Table C1, 50° C.
[2] = Table A3, Comparative Examples A1-A6, 50° C.
[3] = Table B3, Comparative Examples B1-B6, 50° C.
[4] = Table C (C3), Comparative Examples C1-C6, 50° C.
[5] = Table B2, dyes of Table B1, 50° C.
[6] = Table A2, dyes of Table A1, 50° C.

Structure (SMILES): CCN(CC)c1ccc(N=C2C=CC(=O)C(NC(=O)C3CC4C=CC3C4)=C2)c(C)c1 (centres unmarked) [Dye No. 2 in Table C1]
Light fastness [1]: .largecircle. (less than 20% in the percentage fading)

Light fastness [2]: Δ
Light fastness [3]: Δ
Light fastness [4]: Δ
Structure (SMILES): CNc1ccc(N)c2c1C(=O)c1ccccc1C2=O [Comp. Ex. A5, C.I. Disperse Violet 4, reference compound]

Structure (SMILES): CCOc1cc(N(CC)CC)ccc1N=C1C=CC(=O)C(NC(=O)C2C=CCCC2)=C1 (centres unmarked) [Dye No. 8 in Table B1]
Light fastness [5]: .largecircle. (less than 20% in the percentage fading)

Structure (SMILES): CCN(CCO)c1ccc(N=C2C=C(NC(=O)C3CC=CCC3)C(=O)C(Cl)=C2C)c(C)c1 (centres unmarked) [Dye No. 2 in Table B1]
Light fastness [5]: .largecircle. (less than 20% in the percentage fading)

Structure (SMILES): CCN(CC)c1ccc(N=C2C=C(NC(=O)C3CCCC3)C(=O)C(Cl)=C2C)cc1 [compound 17]
Light fastness [6]: .largecircle. (less than 20% in the percentage fading)

Structure (SMILES): CCN(CC)c1ccc(N=C2C=C(NC(=O)C3CC4C=CC3O4)C(=O)C(Cl)=C2C)c(C)c1 (centres unmarked) [Dye No. 21 in Table C1]
Light fastness [1]: .largecircle. (less than 20% in the percentage fading)

Structure (SMILES): CCN(CC)c1ccc(N=C2C=C(NC(=O)C3=CCC=CC3)C(=O)C(Cl)=C2C)cc1 [Dye No. 18 in Table B1]
Light fastness [5]: .largecircle. (less than 20% in the percentage fading)

Structure (SMILES): CCN(Cc1ccccc1)c1ccc(N=C2C=C(NC(=O)C3=CC4C=CC3C4)C(=O)C=C2NC(C)=O)cc1 (centres unmarked) [Dye No. 13 in Table C1]
Light fastness [1]: .largecircle. (less than 20% in the percentage fading)

Structure (SMILES): CCN(CC)c1ccc(N=C2C=C(NC(=O)C3CC3)C(=O)C=C2NC(C)=O)c(C)c1 [compound 3]
Light fastness [6]: .largecircle. (less than 20% in the percentage fading)

Structure (SMILES): CCN(CC)c1ccc(N=C2C=C(NC(=O)c3ccccc3)C(=O)C(Cl)=C2C)c(C)c1 [Comparative Example B6, reference compound]
Light fastness [3]: .largecircle. (less than 20% in the percentage fading)

Structure (SMILES): CCN(CCCl)c1ccc(N=C2C=C(NC(=O)C3CC4C=CC3C4)C(=O)C(Cl)=C2C)c(NC(=O)NC)c1 (centres unmarked) [Dye No. 9 in Table C1]
Light fastness [1]: .largecircle. (less than 20% in the percentage fading)

Structure (SMILES): CCN(c1ccccc1)c1ccc(N=C2C=C(NC(=O)C3CC=CC3)C(=O)C=C2NC(=O)NC)c(Cl)c1 [Dye No. 15 in Table B1]
Light fastness [5]: .largecircle. (less than 20% in the percentage fading)

Structure (SMILES): CCOc1cc(N(CC)CC)ccc1N=C1C=C(NC(=O)C2CC=CCC2)C(=O)C(Cl)=C1C (centres unmarked) [Dye No. 22 in Table B1]
Light fastness [5]: .largecircle. (less than 20% in the percentage fading)

Structure (SMILES): CCN(c1ccccc1)c1ccc(N=C2C=C(NC(=O)C3CC3)C(=O)C(Cl)=C2C)c(Cl)c1 [compound 8]
Light fastness [6]: .largecircle. (less than 20% in the percentage fading)

Structure (SMILES): CCN(CC)c1ccc(N=C2C=C(NC(=O)c3ccccc3)C(=O)C(Cl)=C2C)c(C)c1 [Comparative Example A6, reference compound]
Light fastness [2]: .largecircle. (less than 20% in the percentage fading)

Structure (SMILES): CCN(CCO)c1ccc(N=C2C=C(NC(=O)C3=CCC=CC3)C(=O)C(Cl)=C2C)c(C)c1 [Dye No. 21 in Table B1]
Light fastness [5]: .largecircle. (less than 20% in the percentage fading)

Structure (SMILES): CCN(CC)c1ccc(N=C2C=CC(=O)C(NC(=O)C3CC=CCC3)=C2)c(C)c1 (centres unmarked) [compound 23]
Light fastness [5]: .largecircle. (less than 20% in the percentage fading)

Structure (SMILES): CCN(Cc1ccccc1)c1ccc(N=C2C=C(NC(=O)C3CCCC3)C(=O)C=C2NC(C)=O)c(C)c1 [compound 13]
Light fastness [6]: .largecircle. (less than 20% in the percentage fading)

Structure (SMILES): CCOc1cc(N(CC)CC)ccc1N=C1C=CC(=O)C(NC(=O)C2CC3C=CC2C3)=C1 (centres unmarked) [Dye No. 5 in Table C1]
Light fastness [1]: .largecircle. (less than 20% in the percentage fading)

Light fastness [2]: Δ
Light fastness [3]: Δ
Light fastness [4]: Δ
Structure (SMILES): CNc1ccc(NC)c2c1C(=O)c1ccccc1C2=O [Comp. Ex. A1, C.I. Disperse Blue 14, reference compound]

Structure (SMILES): CCN(CCC#N)c1ccc(N=C2C=C(NC(=O)C3CC=CC3)C(=O)C(Cl)=C2C)c(NS(C)(=O)=O)c1 [Dye No. 13 in Table B1]
Light fastness [5]: .largecircle. (less than 20% in the percentage fading)

Structure (SMILES): CCN(CC)c1ccc(N=C2C=C(NC(=O)C3CC4C=CC3C4)C(=O)C(Cl)=C2C)cc1 (centres unmarked) [Dye No. 6 in Table C1]
Light fastness [1]: .largecircle. (less than 20% in the percentage fading)

Structure (SMILES): CCN(CC)c1ccc(N=C2C=C(NC(=O)C3=CC4C=CC3C4)C(=O)C(Cl)=C2C)c(C)c1 (centres unmarked) [Dye No. 11 in Table C1]
Light fastness [1]: .largecircle. (less than 20% in the percentage fading)

Structure (SMILES): CCN(CC)c1ccc(N=C2C=C(NC(=O)C3CCCC3)C(=O)C(Cl)=C2C)c(NC(C)=O)c1 [compound 14]
Light fastness [6]: .largecircle. (less than 20% in the percentage fading)

Structure (SMILES): CCN(CC)c1ccc(N=C2C=C(NC(=O)C3CC=CCC3)C(=O)C(Cl)=C2C)c(C)c1 (centres unmarked) [Dye No. 1 in Table B1]
Light fastness [5]: .largecircle. (less than 20% in the percentage fading)

Structure (SMILES): CCN(CC)c1ccc(N=C2C=C(NC(=O)C3CC3)C(=O)C(Cl)=C2C)c(C)c1 [compound 1]
Light fastness [6]: .largecircle. (less than 20% in the percentage fading)

Structure (SMILES): CCN(CC)c1ccc(N=C2C=C(NC(=O)C3CC4C=CC3C4)C(=O)C(Cl)=C2C)c(NC(C)=O)c1 (centres unmarked) [Dye No. 8 in Table C1]
Light fastness [1]: .largecircle. (less than 20% in the percentage fading)

Structure (SMILES): CCN(CCCl)c1ccc(N=C2C=C(NC(=O)C3CCCC3)C(=O)C=C2NC(C)=O)c(NC(=O)NC)c1 [compound 18]
Light fastness [6]: .largecircle. (less than 20% in the percentage fading)

Structure (SMILES): CCN(CCOC)c1ccc(N=C2C=C(NC(=O)c3ccsc3)C(=O)C(Cl)=C2C)c(NC(C)=O)c1 [compound 22]
Light fastness [6]: .largecircle. (less than 20% in the percentage fading)

Light fastness [2]: Δ
Light fastness [3]: Δ
Light fastness [4]: Δ
Structure (SMILES): CNc1ccc(O)c2c1C(=O)c1c(O)ccc(NC)c1C2=O [Comp. Ex. A4, C.I. Disperse Blue 26, reference compound]

Structure (SMILES): CCN(CC)c1ccc(N=C2C=C(NC(=O)c3ccsc3)C(=O)C(Cl)=C2C)c(NC(C)=O)c1 [compound 20]
Light fastness [6]: .largecircle. (less than 20% in the percentage fading)

Structure (SMILES): CCN(CC)c1ccc(N=C2C=C(NC(=O)C3CC=CCC3)C(=O)C(Cl)=C2C)c(NC(C)=O)c1 (centres unmarked) [Dye No. 6 in Table B1]
Light fastness [5]: .largecircle. (less than 20% in the percentage fading)

Structure (SMILES): CCN(CC)c1ccc(N=C2C=C(NC(=O)C3CC4C=CC3S4)C(=O)C=C2NC(C)=O)c(C)c1 (centres unmarked) [Dye No. 23 in Table C1]
Light fastness [1]: .largecircle. (less than 20% in the percentage fading)

Light fastness [2]: Δ
Light fastness [3]: Δ
Light fastness [4]: Δ
Structure (SMILES): CC(C)Nc1ccc(NC(C)C)c2c1C(=O)c1ccccc1C2=O [Comp. Ex. A2, C.I. Disperse Blue 134, reference compound]

Structure (SMILES): CCN(CC)c1ccc(N=C2C=C(NC(=O)c3ccsc3)C(=O)C(Cl)=C2C)c(C)c1 [compound 19]
Light fastness [6]: .largecircle. (less than 20% in the percentage fading)

Structure (SMILES): CCN(c1ccccc1)c1ccc(N=C2C=C(NC(=O)C3=CC4C=CC3C4)C(=O)C=C2NC(=O)NC)c(Cl)c1 (centres unmarked) [Dye No. 15 in Table C1]
Light fastness [1]: .largecircle. (less than 20% in the percentage fading)
